# Test results published in patent publication US20230000813A1, “COMPOUND FOR THE TREATMENT OF BOVINE OR SWINE RESPIRATORY DISEASE” (Intervet Inc., priority 2016, published 2023).
# Assays:
# Assay in all cases: MIC, broth-microdilution (CLSI VET01-A4)
# Type in all cases: cell-based
# [1] = tested on: Pasteurella multocida PM 10775 (080130003051, BRD field isolate); conditions: Pasteurella multocida PM 10775
# In short: (§1)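 Test compound is serially diluted twofold across microdilution trays, bacteria are grown, and wells are inspected by eye. The lowest concentration showing no growth is recorded as the MIC.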
# [2] = tested on: Mannheimia haemolytica MH 6374 (ATCC 33396, reference strain); conditions: Mannheimia haemolytica MH 6374; read-out: MIC MH 6374
# In short: as §1
# [3] = tested on: Pasteurella multocida PM 6391 (ATCC 43137, reference strain); conditions: Pasteurella multocida PM 6391; for MIC: read-out: MIC PM 6391
# In short: as §1
# [4] = tested on: Pasteurella multocida PM 6267 (P 2225 (L386), reference strain, mouse infection strain); conditions: Pasteurella multocida PM 6267; for MIC: read-out: MIC PM 6267
# In short: as §1
# [5] = tested on: Mannheimia haemolytica MH 6357 (M7/2, reference strain, cattle infection strain); conditions: Mannheimia haemolytica MH 6357; read-out: MIC MH 6357
# In short: as §1
# [6] = tested on: Pasteurella multocida PM 12080 (IV102277-0093, BRD field isolate); conditions: Pasteurella multocida PM 12080; for MIC: read-out: MIC PM 12080
# In short: as §1
# [7] = tested on: Mannheimia haemolytica MH 10720 (154, BRD field isolate); conditions: Mannheimia haemolytica MH 10720; for MIC: read-out: MIC MH 10720
# In short: as §1
# [8] = tested on: Mannheimia haemolytica MH 12587 (1071, BRD field isolate, macrolide-resistance: erm+, E+); conditions: Mannheimia haemolytica MH 12587, macrolide-resistant
# In short: as §1
# [9] = tested on: Mannheimia haemolytica MH 13065 (XB0446-6003.9, BRD field isolate)
# In short: (§2)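 MIC read by eye as lowest compound concentration without visible growth (no turbidity), interpreted per CLSI VET01-S3. Doubling-dilution broth-microdilution trays, run according to CLSI VET01-A4.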
# [10] = tested on: Mannheimia haemolytica MH 13093 (XB0472-6014.1, BRD field isolate)
# In short: as §2
Compound,MIC PM 10775 [1],MIC [2] [µM],MIC [3] [µM],MIC PM 6267 [4],MIC [5] [µM],MIC [6] [µM],MIC MH 10720 [7],MIC MH 12587 [8] [µM],MIC [9] [µM],MIC [10] [µM],MIC [7] [µM],MIC PM 12080 [6],MIC [4] [µM],MIC PM 6391 [3]
CC(C)C(NC(=O)c1ccc(C#Cc2ccc(CNCc3cccnc3)cc2)cc1)C(=O)NO (stereo not shown) [Compound 287],<=0.1 μM,0.4,0.4,<=0.1 μM,0.4,0.2,<=0.1 μM,0.8,0.8,0.8,,,,
CC(C)C(NC(=O)c1ccc(C#Cc2ccc(CNCc3ccnc(Cl)c3)cc2)cc1)C(=O)NO (stereo not shown) [Compound 288],<=0.1 μM,0.8,0.4,<=0.1 μM,0.4,0.2,,1.6,0.8,0.8,0.2,,,
CC(C)C(NC(=O)c1ccc(C#Cc2ccc(CNCc3ccccn3)cc2)cc1)C(=O)NO (stereo not shown) [Compound 289],<=0.1 μM,0.8,0.4,<=0.1 μM,0.4,0.4,,1.6,0.8,0.8,0.2,,,
CC(C)C(NC(=O)c1ccc(C#Cc2ccc(CNCc3ccco3)cc2)cc1)C(=O)NO (stereo not shown) [Compound 290],<=0.1 μM,0.4,0.4,<=0.1 μM,0.2,0.2,<=0.1 μM,0.4,0.4,0.4,,,,
CC(C)C(NC(=O)c1ccc(C#Cc2ccc(CNCc3cccs3)cc2)cc1)C(=O)NO (stereo not shown) [Compound 291],<=0.1 μM,0.4,0.2,<=0.1 μM,0.2,,<=0.1 μM,0.8,0.2,0.4,,<=0.1 μM,,
Cc1ccc(CNCc2ccc(C#Cc3ccc(C(=O)NC(C(=O)NO)C(C)C)cc3)cc2)cc1 (stereo not shown) [Compound 292],<=0.1 μM,0.8,0.4,,0.4,0.4,,1.6,0.8,0.8,0.4,,0.2,
CCC(C)C(NC(=O)c1ccc(C#Cc2ccc(CNCc3cccnc3)cc2)cc1)C(=O)NO (stereo not shown) [Compound 299],<=0.1 μM,0.8,1.6,,0.4,0.4,<=0.1 μM,1.6,0.8,0.8,,,0.2,
CCC(C)C(NC(=O)c1ccc(C#Cc2ccc(CNCc3ccco3)cc2)cc1)C(=O)NO (stereo not shown) [Compound 301],<=0.1 μM,0.8,0.8,,0.4,0.4,<=0.1 μM,1.6,0.8,0.8,,,0.4,
CCC(C)C(NC(=O)c1ccc(C#Cc2ccc(CNCc3cccs3)cc2)cc1)C(=O)NO (stereo not shown) [Compound 302],<=0.1 μM,1.6,0.8,,0.4,0.2,,1.6,0.8,0.8,0.2,,0.2,
COc1ccc(CNCc2ccc(C#Cc3ccc(C(=O)N[C@H](C(=O)NO)[C@@H](C)O)cc3)s2)cc1 [Compound 306],<=0.1 μM,0.4,0.2,<=0.1 μM,0.4,0.2,<=0.1 μM,0.8,0.4,0.8,,,,
CC(C)C(NC(=O)c1ccc(C#Cc2ccc(CNCc3nccs3)cc2)cc1)C(=O)NO (stereo not shown) [Compound 341],<=0.1 μM,0.4,,<=0.1 μM,0.2,,<=0.1 μM,0.4,0.2,0.4,,<=0.1 μM,,<=0.1 μM
C[C@@H](O)[C@H](NC(=O)c1ccc(C#Cc2ccc(CNCc3nccs3)cc2)cc1)C(=O)NO [Compound 359],<=0.1 μM,0.2,,<=0.1 μM,0.2,,<=0.1 μM,0.4,0.2,0.4,,<=0.1 μM,,<=0.1 μM
CC(C)(N)C(NC(=O)c1ccc(C#Cc2ccc(CNCc3nccs3)cc2)cc1)C(=O)NO (stereo not shown) [Compound 562],<=0.1 μM,0.8,,<=0.1 μM,0.8,,<=0.1 μM,1.6,0.8,0.8,,<=0.1 μM,,<=0.1 μM
